Experimental data: patent publication US20260097047A1, “Small molecule inhibitors of the ribosome biogenesis factor NVL2” (Board of Regents, The University of Texas System, priority 2023, published 2026)

System: HCT116 cells
Test: Cell viability assay (CellTiter-Glo, 72 hours) in HCT116 human colorectal cancer cells
Format: cell-based
Conditions: Homo sapiens, HCT-116; Table 5; HCT116, 72 hours; read-out: Activity
Outline: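 2,000 cells/well adhered overnight, then compound added by digital dispenser with DMSO normalized to 0.5%. Viability read after 72 h at 37 °C by ATP-based CellTiter-Glo luminescence. IC50 from ten-point curves baseline-corrected to vehicle, five-parameter asymmetric least-squares fit.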

IC50 [µM] | SMILES
< 0.5 | CC#CCN1C(=O)c2ccccc2Sc2cc(Nc3ccncc3)ccc21 [10-(But-2-yn-1-yl)-7-(pyridin-4-ylamino)dibenzo[b,f][1,4]thiazepin-11 (10H)-one]
< 0.5 | CC#CCN1C(=O)c2ccccc2Sc2cc(Nc3cnn(C)c3)ccc21 [10-(But-2-yn-1-yl)-7-((1-methyl-1H-pyrazol-4-yl)amino)dibenzo[b,f][1,4]thiazepin-11 (10H)-one]
0.5 to 1 | CCC/C=C/CN1C(=O)c2ccccc2Sc2cc(Nc3cc(C4CC4)ccn3)ccc21 [(E)-7-((4-Cyclopropylpyridin-2-yl)amino)-10-(hex-2-en-1-yl)dibenzo[b,f][1,4]thiazepin-11(10H)-one]
1 to 5 | CC#CCN1C(=O)c2ccc(C#N)cc2Sc2cc(Nc3cccnn3)ccc21 [10-(But-2-yn-1-yl)-11-oxo-7-(pyridazin-3-ylamino)-10,11-dihydrodibenzo[b,f][1,4]thiazepine-3-carbonitrile]

Same assay, conditions: Homo sapiens, HCT-116; Table 6; HCT116, 72 hours; read-out: Activity

IC50 [µM] | SMILES
1 to 5 | CC#CCN1C(=O)c2ccccc2Sc2cc(NC3COCC3C#N)ccc21 (centres unmarked) [4-((10-(But-2-yn-1-yl)-11-oxo-10,11-dihydrodibenzo[b,f][1,4]thiazepin-7-yl)amino)tetrahydrofuran-3-carbonitrile]

Same assay, conditions: Homo sapiens, HCT-116; Table 9; HCT116, 72 hours; read-out: Activity

IC50 [µM] | SMILES
< 0.5 | CC#CCN1C(=O)c2ccccc2C(C#N)c2cc(NC(=O)c3ccc(OC)cc3)ccc21 (centres unmarked) [Table 9: —CH2CCMe; 4-MeOPh; CHCN, N-(5-(But-2-yn-1-yl)-11-cyano-6-oxo-6,11-dihydro-5H-dibenzo[b,e]azepin-2-yl)-4-methoxybenzamide]

Same assay, conditions: Table 1; HCT116, 72 hours; read-out: Activity

IC50 [µM] | SMILES
< 0.5 | CC#CCN1C(=O)c2ccccc2Sc2cc(NC(=O)N3CCCC3)cnc21

Same assay, conditions: Table 2; HCT116, 72 hours; read-out: Activity

IC50 [µM] | SMILES
< 0.5 | CC#CCN1C(=O)c2ccccc2Sc2cc(NC(=S)N3CCCCC3)ccc21

Same assay, conditions: Table 3; HCT116, 72 hours; read-out: Activity

IC50 [µM] | SMILES
< 0.5 | CC#CCN1C(=O)c2ccccc2Sc2cc(NC(=O)N[C@H]3C[C@H](O)C3)cnc21 [Table 3: —CH2CCMe; trans-3-OH-cBu; CH/N]

Same assay, conditions: Table 4; HCT116, 72 hours; read-out: Activity

IC50 [µM] | SMILES
< 0.5 | CC#CCN1C(=O)c2ccccc2Sc2cc(NC(=S)Nc3cccc(OC)c3)ccc21 [Table 4: —CH2CCMe; 3-MeOPh; CH]
< 0.5 | CC#CCN1C(=O)c2ccccc2Sc2cc(NC(=S)Nc3ccc(OC(F)F)cc3)cnc21 [Table 4: —CH2CCMe; 4-F2HCOPh; N]

Same assay, conditions: Table 5; HCT116, 72 hours; read-out: Activity

IC50 [µM] | SMILES
< 0.5 | CC#CCN1C(=O)c2ccccc2Sc2cc(Nc3ncc(C)cc3C)cnc21
< 0.5 | C#CCN1C(=O)c2ccccc2Sc2cc(Nc3nc(C)cnc3C)cnc21
< 0.5 | CC#CCN1C(=O)c2ccccc2Sc2cc(Nc3ncc(C#N)cc3C)cnc21

SMILES | IC50 [µM]
CCCC=CCN1C(=O)c2ccccc2Sc2cc(Nc3ncccc3F)cnc21 | < 0.5

Same assay, conditions: Table 6; HCT116, 72 hours; read-out: Activity

SMILES | IC50 [µM]
C#CCN1C(=O)c2ccccc2Sc2cc(NC3CC(O)C3)cnc21 (centres unmarked) [Table 6: —CH2CCH; 3-HOcBu; CH/N; S] | < 0.5
C#CCN1C(=O)c2ccccc2Sc2cc(NC3CC(COC)C3)ccc21 (centres unmarked) [Table 6: —CH2CCH; 3-MeOCH2-cBu; CH/CH; S] | < 0.5
COCC1CC(Nc2ccc3c(c2)Sc2ccccc2C(=O)N3CC#CCl)C1 (centres unmarked) | < 0.5

Results, then the compound that gave them:

IC50 [µM] | SMILES
< 0.5 | CC#CCN1C(=O)c2ccccc2Sc2cc(NCCCO)ccc21 [Table 6: —CH2CCMe; (CH2)3OH; CH/CH; S]
< 0.5 | C#CCN1C(=O)c2ccccc2Sc2cc(NC3CC(O)C3)ccc21 (centres unmarked) [Table 6: —CH2CCH; 3-HOcBu; CH/CH; S]
< 0.5 | O=C1c2ccccc2Sc2cc(NC3CC(O)C3)ccc2N1CC#CCl (centres unmarked) [Table 6: —CH2CCCl; 3-HOcBu; CH/CH; S]
< 0.5 | CC#CCN1C(=O)c2ccccc2Cc2cc(NCCCO)ccc21 [Table 6: —CH2CCMe; (CH2)3 OH; CH/CH; CH2]

Same assay, conditions: Table 7; cell viability assay, CellTiter-Glo, 72 hours; scaffold drawing 42 with R^2, R^3, X/Y, Z; read-out: Activity

IC50 [µM] | SMILES
< 0.5 | COCCN1C(=O)c2ccccc2Sc2cc(NC(=O)c3ccc(OCF)cc3)ccc21 [—(CH2)2OMe; 4-FH2COPh; CH/CH; S]
1 to 5 | COCCN1C(=O)c2ccccc2Sc2cc(NC(=O)c3cnccn3)ccc21 [—(CH2)2OMe; pyrazin-2-yl; CH/CH; S]
1 to 5 | COCCN1C(=O)c2ccccc2Sc2cc(NC(=O)C3CCCCCC3)ccc21 [—(CH2)2OMe; cHeptyl; CH/CH; S]
< 0.5 | CCCC=CCN1C(=O)c2ccccc2Sc2cc(NC(=O)c3ccoc3)ccc21 [—CH2CH═CHPr; furan-3-yl; CH/CH; S]
1 to 5 | COCCN1C(=O)c2ccccc2Sc2cc(NC(=O)c3cccc(F)c3)ccc21 [—(CH2)2OMe; 3-FPh; CH/CH; S]
1 to 5 | COCCN1C(=O)c2ccccc2Sc2cc(NC(=O)c3ccn4ccnc4c3)ccc21

Same assay, conditions: Table 8; analogs of scaffold drawing 43 defined by R^2, R^3, X/Y, W; read-out: Activity (IC50 class, cell viability assay)

SMILES | IC50 [µM]
O=C1CC2(C1)CC(C(=O)Nc1cnc3c(c1)Sc1ccccc1C(=O)N3CC#CC1CC1)C2 | < 0.5
CC#CCN1C(=O)c2ccccc2Sc2cc(NC(=O)c3ccc4scnc4c3)ccc21 | < 0.5
CON=C1CC2(C1)CC(C(=O)Nc1cnc3c(c1)Sc1cc(Cl)ccc1C(=O)N3CC#CCl)C2 (centres unmarked) | < 0.5
CC#CCN1C(=O)c2ccc(Cl)cc2Sc2cc(NC(=O)C3CCOC3)cnc21 (centres unmarked) | < 0.5
CC#CCN1C(=O)c2ccc(Cl)cc2Sc2cc(NC(=O)C3CC4(COC4)C3)ccc21 | < 0.5
CC#CCN1C(=O)c2ccc(F)cc2Sc2cc(NC(=O)c3ccc4oc(=O)n(C)c4c3)ccc21 | < 0.5
CC#CCN1C(=O)c2cc(F)ccc2Sc2cc(NC(=O)CCCO)ccc21 [—CH2CCMe; (CH2)3OH; CH/CF; CH] | < 0.5
CC#CCN1C(=O)c2ccc(Cl)cc2Sc2cc(NC(=O)C3CCCO3)ccc21 (centres unmarked) | < 0.5
C#CCN1C(=O)c2ccc(Cl)cc2Sc2cc(NC(=O)[C@@H]3C[C@H]3COC)ccc21 (relative stereo) [—CH2CCH; trans-2-MeOCH2-cPr; CCl/CH; CH] | < 0.5
CC#CCN1C(=O)c2ccc(F)cc2Sc2cc(NC(=O)c3ccc(OC)cc3)ccc21 [—CH2CCMe; 4-MeOPh; CF/CH; CH] | < 0.5
CC#CCN1C(=O)c2ccc(F)cc2Sc2cc(NC(=O)c3ccc(OC)nc3)ccc21 [—CH2CCMe; 6-MeO-pyrid-3-yl; CF/CH; CH] | < 0.5
C#CCN1C(=O)c2ccc(Cl)cc2Sc2cc(NC(=O)C3CC4(CC(=NOC)C4)C3)cnc21 (centres unmarked) | < 0.5

Other lines, results leading:

IC50 [µM] | SMILES
0.5 to 1 | CC#CCN1C(=O)c2ccccc2Sc2cc(NC(=O)C3CCN(C)C3=O)ccc21 (centres unmarked)
< 0.5 | CC#CCN1C(=O)c2ccccc2Sc2cc(NC(=O)C34CC(C)(C3)C4)ccc21
< 0.5 | CC#CCN1C(=O)c2ccccc2Sc2cc(NC(=O)C=CCOC)ccc21 [—CH2CCMe; CH═CHCH2OMe; CH/CH; CH]
< 0.5 | CC#CCN1C(=O)c2ccc(C#N)cc2Sc2cc(NC(=O)[C@@H]3C[C@H]3COC)ccc21 (relative stereo) [—CH2CCMe; trans-2-MeOCH2-cPr; CCN/CH; CH]

Same assay, conditions: Table 9; HCT116, 72 hours; read-out: Activity

IC50 [µM] | SMILES
< 0.5 | CC#CCN1C(=O)c2ccccc2C(C)(O)c2cc(NC(=O)C3CC(COC)C3)ccc21 (centres unmarked) [Table 9: —CH2CCMe; 3-MeOCH2-cBu; CMeOH]
< 0.5 | COC12CC(C(=O)Nc3ccc4c(c3)C(C#N)c3ccccc3C(=O)N4CC#CC3CC3)(C1)C2 (centres unmarked)
< 0.5 | CC#CCN1C(=O)c2ccccc2C(C)(O)c2cc(NC(=O)c3ccc(OC)nc3)ccc21 (centres unmarked)
< 0.5 | CC1c2ccccc2C(=O)N(CC#CC2CC2)c2ccc(NC(=O)[C@H]3C[C@H](O)C3)cc21 (some centres unmarked)
< 0.5 | CC#CCN1C(=O)c2ccccc2C(C)c2cc(NC(=O)[C@H]3C[C@@H](O)C3)ccc21 (stereo partly drawn) [Table 9: —CH2CCMe; cis-3-OH-cBu; CHMe]
< 0.5 | CC#CCN1C(=O)c2ccccc2C(C)c2cc(NC(=O)C3CC(COC)C3)ccc21 (centres unmarked) [Table 9: —CH2CCMe; 3-MeOCH2-cBu; CHMe]
